Common to all, as to format: functional
In experiment [1] the test system is PBMC. Nature of the experiment: Inhibition of LPS-induced IL1-beta production in human PBMC at 0.01 uM after 24 hrs by ELISA. Background: In an ELISA, binding on a coated surface is turned into a signal by an enzyme label.
For experiment [2], the system named is PBMC. Nature of the experiment: Inhibition of LPS-induced IL1-beta production in human PBMC at 0.1 uM after 24 hrs by ELISA.
In experiment [3] the test system is PBMC. Kind of experiment: Inhibition of LPS-induced IL1-beta production in human PBMC at 1.0 uM after 24 hrs by ELISA.
For experiment [4], the system named is PBMC. Nature of the experiment: Inhibition of LPS-induced IL1-beta production in human PBMC at 10 uM after 24 hrs by ELISA.

Each structure is given as a SMILES string.

The inhibition is the relative decrease from the control value, in per cent.

As to `COC(=O)c1ccc([C@H](O)[C@H](C)O)cn1`, the inhibition at 0.01 µM in the experiment on PBMC [1] is -9.5%. The inhibition at 0.1 µM in the experiment on PBMC [2] was determined as 13.8%. The inhibition at 1 µM with PBMC [3] came out at 39.6%. Moreover, in the experiment on PBMC [4], the inhibition at 10 µM amounted to 49.8%.
In the case of `COC(=O)c1ccc([C@@H](O)[C@@H](C)O)cn1`, the inhibition at 0.01 µM with PBMC [1] is 9.1%. The inhibition at 0.1 µM in the experiment on PBMC [2] amounted to 4.3%. In the experiment on PBMC [3], the inhibition at 1 µM came to 10.6%. The inhibition at 10 µM with PBMC [4] is -7.5%.

The values above are taken from ChEMBL document CHEMBL1153369, “First asymmetric synthesis of CJ-14877 and its enantiomer and their interleukin-1beta inhibitory activities” (2009).
